Columns and labels:
[1] = test system: HCT116; test: HCT116 IC50; format: cell-based; conditions: Homo sapiens, HCT-116
[2] = molecular target: T1, HDAC-1 (Homo sapiens, UniProt Q13547); test: HDAC inhibition assay (purified GST-HDAC protein); format: biochemical
T1 construct: made in house; host or cells: Sf9 or Sf21 insect cells (baculovirus, donor vector pFB-GSTX3)
T1 sequence (Q13547 whole entry, species assumed): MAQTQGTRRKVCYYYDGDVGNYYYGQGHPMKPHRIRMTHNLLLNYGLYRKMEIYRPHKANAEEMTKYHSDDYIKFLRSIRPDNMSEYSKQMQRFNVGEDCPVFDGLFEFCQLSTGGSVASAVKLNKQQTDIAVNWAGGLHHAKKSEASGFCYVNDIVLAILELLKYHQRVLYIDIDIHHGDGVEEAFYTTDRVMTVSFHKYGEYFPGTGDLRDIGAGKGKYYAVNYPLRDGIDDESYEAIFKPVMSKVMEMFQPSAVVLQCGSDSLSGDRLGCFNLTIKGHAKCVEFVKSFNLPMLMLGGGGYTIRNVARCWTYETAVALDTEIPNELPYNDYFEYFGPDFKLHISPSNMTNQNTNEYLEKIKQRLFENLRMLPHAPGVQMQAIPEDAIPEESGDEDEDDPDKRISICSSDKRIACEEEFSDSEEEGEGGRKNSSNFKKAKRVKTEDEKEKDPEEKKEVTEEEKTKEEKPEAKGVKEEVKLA

IC50 [1] | IC50 [2] | SMILES
1.1 nM | 1 nM | O=C(/C=C/c1ccc([C@@H]2CCCN2CCc2cnn3ccccc23)cc1)NO [Compound 43, (E)-N-Hydroxy-3-{4-[(S)-1-(2-pyrazolo[1,5-a]pyridin-3-yl-ethyl)-pyrrolidin-2-yl]-phenyl}-acrylamide]
2 nM | 1.7 nM | CCn1nc(C)c(CCN2CCC[C@H]2c2ccc(/C=C/C(=O)NO)cc2)c1C [Compound 96, (E)-3-(4-{(S)-1-[2-(1-Ethyl-3,5-dimethyl-1H-pyrazol-4-yl)-ethyl]-pyrrolidin-2-yl}-phenyl)-N-hydroxy-acrylamide]
190 nM | 62 nM | Cc1cnn(CCN2CCC[C@H]2c2ccc(/C=C/C(=O)NO)cc2)c1 [Compound 64, (E)-N-Hydroxy-3-(4-{(S)-1-[2-(4-methyl-pyrazol-1-yl)-ethyl]-pyrrolidin-2-yl}-phenyl)-acrylamide]
43 nM | 8 nM | O=C(/C=C/c1ccc(C2CCCN2CCc2ccc([N+](=O)[O-])cc2)cc1)NO (centres unmarked) [Compound 24, (E)-N-Hydroxy-3-(4-{1-[2-(4-nitro-phenyl)-ethyl]-pyrrolidin-2-yl}-phenyl)-acrylamide]

Reference: patent US8349883B2, “Hydroxamate-based inhibitors of deacetylases B” (Novartis AG, priority 2008, dated 2013)
